Measured values reported in ChEMBL document CHEMBL1201862, “PubChem BioAssay data set” (2004).
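In this assay, cells in 96-well plates receive the compound at five concentrations for 48 hours. Endpoints are linearly interpolated between the surrounding concentrations. GI50: concentration for 50% inhibition of growth.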 Calls of active or inactive are those of the source. No stated cut-off is given here; in the data, active = GI50 up to about 1.1 µM and inactive = higher.

Legend:
Assay in all cases: NCI anticancer screen, dose series, 48 h
[1] = tested on: A498
[2] = tested on: HCT-15
[3] = tested on: HL-60
[4] = tested on: HOP-92
[5] = tested on: IGROV-1
[6] = tested on: K562
[7] = tested on: MDA-MB-435
[8] = tested on: MOLT-4
[9] = tested on: OVCAR-3
[10] = tested on: OVCAR-4
[11] = tested on: PC-3
[12] = tested on: SF-295
[13] = tested on: SK-MEL-28
[14] = tested on: SN12C
[15] = tested on: SR
[16] = tested on: SW-620
[17] = tested on: U-251
[18] = tested on: COLO 205
[19] = tested on: SK-OV-3
[20] = tested on: SF-539

Row | Compound | GI50 [1] | GI50 [2] | GI50 [3] | GI50 [4] | GI50 [5] | GI50 [6] | GI50 [7] | GI50 [8] | GI50 [9] | GI50 [10] | GI50 [11] | GI50 [12] | GI50 [13] | GI50 [14] | GI50 [15] | GI50 [16] | GI50 [17] | GI50 [18] | GI50 [19] | GI50 [20]
1 | Cc1cc(O)c(C(C)C)cc1NC(=O)Nc1cccc2ccccc12 | 13.1 µM (inactive) | 20.7 µM | 23.8 µM (inactive) | 17.4 µM (inactive) | 14.3 µM (inactive) | 34.6 µM (inactive) | 15.9 µM (inactive) | 33.8 µM (inactive) | 16 µM (inactive) | 6.43 µM (inactive) | 13.7 µM (inactive) | 13.8 µM (inactive) | 23.2 µM (inactive) | 16.5 µM (inactive) | 26.6 µM (inactive) | 27.9 µM (inactive) | 17.2 µM (inactive) |  |  | 
2 | NCC1CCCCC1.O=C(O)NCC1CCCCC1 | 15 µM (inactive) | 23.8 µM | 15.6 µM (inactive) | 3.95 µM (inactive) | 9.12 µM (inactive) | 6.28 µM (inactive) | 22.9 µM (inactive) | 15.2 µM (inactive) | 4.89 µM (inactive) | 35.6 µM (inactive) | 17.7 µM (inactive) | 19.1 µM (inactive) | 38 µM (inactive) | 12.5 µM (inactive) | 23.4 µM (inactive) | 17.9 µM (inactive) | 7.45 µM (inactive) |  |  | 
3 | CC(C)C(=O)C(C)(C)CCc1ccccn1 | > 100 µM (inactive) | > 100 µM | > 100 µM (inactive) | > 100 µM (inactive) | > 100 µM (inactive) | > 100 µM (inactive) | > 100 µM (inactive) |  | > 100 µM (inactive) | > 100 µM (inactive) | > 100 µM (inactive) | > 100 µM (inactive) | > 100 µM (inactive) | > 100 µM (inactive) | > 100 µM (inactive) | > 100 µM (inactive) | > 100 µM (inactive) | > 100 µM (inactive) | > 100 µM (inactive) | 
4 | Cc1cc2cc3ccccc3cc2c(=O)[nH]1 |  |  | > 10 µM (inactive) | > 10 µM (inactive) | > 10 µM (inactive) | > 10 µM (inactive) | > 10 µM (inactive) | > 10 µM (inactive) | > 10 µM (inactive) | > 10 µM (inactive) | > 10 µM (inactive) | > 10 µM (inactive) |  |  | > 10 µM (inactive) | > 10 µM (inactive) | > 10 µM (inactive) |  | > 10 µM (inactive) | > 10 µM (inactive)
5 | O=C(OCc1ccccc1CN1CCOCC1)c1cccc(Br)c1 | > 100 µM (inactive) | 36.4 µM |  | 43.6 µM (inactive) | 19.7 µM (inactive) | 6.3 µM (inactive) | > 100 µM (inactive) | < 0.01 µM (active) | 17.7 µM (inactive) | 20.9 µM (inactive) | 37.2 µM (inactive) |  | 33.1 µM (inactive) | 39.3 µM (inactive) |  | 53.6 µM (inactive) | 47.6 µM (inactive) | 39.4 µM (inactive) | > 100 µM (inactive) | 43.6 µM (inactive)
6 | Nc1ccccc1N/C(=C\C(=O)C(Cl)(Cl)Cl)c1ccccc1 |  | 25.4 µM | 20.5 µM (inactive) | 14.5 µM (inactive) | 5.6 µM (inactive) | 30.2 µM (inactive) | 30.9 µM (inactive) | 23.3 µM (inactive) | 22.5 µM (inactive) | 29.2 µM (inactive) | 22.5 µM (inactive) | 36.6 µM (inactive) | 35.5 µM (inactive) | 20.1 µM (inactive) | 28.2 µM (inactive) | 28.8 µM (inactive) | 16.8 µM (inactive) | 27.9 µM (inactive) | 88.5 µM (inactive) | 18.8 µM (inactive)
7 | CCOC(=O)C1CCC/C1=N\NC(=N)N.Cc1cc(O)c(C(C)C)cc1S(=O)(=O)O (centres undefined) | > 100 µM (inactive) | > 100 µM | > 100 µM (inactive) |  | > 100 µM (inactive) | > 100 µM (inactive) | > 100 µM (inactive) | > 100 µM (inactive) | > 100 µM (inactive) | > 100 µM (inactive) | > 100 µM (inactive) | > 100 µM (inactive) | > 100 µM (inactive) | > 100 µM (inactive) | > 100 µM (inactive) | > 100 µM (inactive) | > 100 µM (inactive) | > 100 µM (inactive) | > 100 µM (inactive) | > 100 µM (inactive)
8 | CCOC(=O)C(C(=O)OCC)C1C=CCC2c3ccccc3COCC21 (centres undefined) | 38.7 µM (inactive) | 40 µM | 22.4 µM (inactive) | > 100 µM (inactive) | 75.5 µM (inactive) | 41.9 µM (inactive) | 36.9 µM (inactive) | 40.9 µM (inactive) | 65.5 µM (inactive) | 28.6 µM (inactive) | 42.6 µM (inactive) | 43.6 µM (inactive) | 55.7 µM (inactive) | 79.6 µM (inactive) |  | 52.7 µM (inactive) | 57.9 µM (inactive) | 23.7 µM (inactive) | 85.5 µM (inactive) | > 100 µM (inactive)
9 | CC1=CC2=C(C#N)C(=O)OC2(C)C(c2ccccc2)C1 (centres undefined) | > 100 µM (inactive) | > 100 µM |  | 87.5 µM (inactive) | 6.04 µM (inactive) | 68.7 µM (inactive) | > 100 µM (inactive) | > 100 µM (inactive) | > 100 µM (inactive) | 87.7 µM (inactive) | 68.5 µM (inactive) | > 100 µM (inactive) | > 100 µM (inactive) | > 100 µM (inactive) |  | > 100 µM (inactive) | > 100 µM (inactive) |  | > 100 µM (inactive) | > 100 µM (inactive)
10 | N=c1oc2ccc3ccccc3c2cc1-c1nc(O)c2ccccc2n1 |  | 19.9 µM | 8.73 µM (inactive) | 15.1 µM (inactive) | 16 µM (inactive) | 19.7 µM (inactive) | 58.3 µM (inactive) | 15.8 µM (inactive) |  | 20.6 µM (inactive) | 13.4 µM (inactive) | 30.2 µM (inactive) | 95.7 µM (inactive) | 74 µM (inactive) | 26.5 µM (inactive) | 36.8 µM (inactive) | 19.2 µM (inactive) | > 100 µM (inactive) | 19.9 µM (inactive) | 31.2 µM (inactive)
11 | COc1c2c(cc3c1C(=O)c1c(O)cccc1C3=O)CC(O)CC2 (centres undefined) | 22.8 µM (inactive) | 35.8 µM | > 100 µM (inactive) | 18.7 µM (inactive) | 85.5 µM (inactive) | > 100 µM (inactive) | > 100 µM (inactive) | > 100 µM (inactive) | > 100 µM (inactive) | > 100 µM (inactive) | 67.9 µM (inactive) | 19.2 µM (inactive) | > 100 µM (inactive) | > 100 µM (inactive) |  | > 100 µM (inactive) | 50.9 µM (inactive) | > 100 µM (inactive) | 21.5 µM (inactive) | 28.8 µM (inactive)
12 | CN(C)C(=O)C(F)(F)C(c1ccc(F)cc1)C1C(=O)N(C)C(=O)N(C)C1=O (centres undefined) | > 100 µM (inactive) | > 100 µM |  | > 100 µM (inactive) |  |  | > 100 µM (inactive) | > 100 µM (inactive) | > 100 µM (inactive) | > 100 µM (inactive) | > 100 µM (inactive) | > 100 µM (inactive) | > 100 µM (inactive) |  |  | > 100 µM (inactive) | > 100 µM (inactive) | > 100 µM (inactive) | > 100 µM (inactive) | 
13 | O=C(O)CC(C(=O)O)c1ccccc1[N+](=O)[O-] (centres undefined) | > 100 µM (inactive) | > 100 µM | > 100 µM (inactive) | > 100 µM (inactive) | > 100 µM (inactive) | > 100 µM (inactive) | > 100 µM (inactive) |  | > 100 µM (inactive) | > 100 µM (inactive) | > 100 µM (inactive) | > 100 µM (inactive) | > 100 µM (inactive) | > 100 µM (inactive) |  | > 100 µM (inactive) | > 100 µM (inactive) | > 100 µM (inactive) | > 100 µM (inactive) | 
14 | O=C1/C(=C\c2ccc([N+](=O)[O-])cc2)N(S(=O)(=O)c2ccccc2)c2ncccc21 |  | 15.7 µM | 2.18 µM (inactive) |  | 18.3 µM (inactive) | 3.55 µM (inactive) | 21.4 µM (inactive) | 3.24 µM (inactive) | 12.2 µM (inactive) |  | 14 µM (inactive) | 28.2 µM (inactive) | 20.7 µM (inactive) | 16.9 µM (inactive) | 3.33 µM (inactive) | 14.9 µM (inactive) | 18.2 µM (inactive) | 19.5 µM (inactive) | 0.0212 µM (active) | 24.8 µM (inactive)
15 | c1ccc2nc(CCC3CCCCN3)ccc2c1 (centres undefined) | 77.6 µM (inactive) | > 100 µM | 67.9 µM (inactive) | > 100 µM (inactive) | 69.8 µM (inactive) | 47.4 µM (inactive) | 97.7 µM (inactive) |  |  | > 100 µM (inactive) | > 100 µM (inactive) | 53 µM (inactive) | > 100 µM (inactive) | > 100 µM (inactive) | 68.5 µM (inactive) | > 100 µM (inactive) | > 100 µM (inactive) | 16.7 µM (inactive) | > 100 µM (inactive) | 
16 | S=C(S)NCNC(=S)S | 89.7 µM (inactive) | > 100 µM | > 100 µM (inactive) | > 100 µM (inactive) | > 100 µM (inactive) | > 100 µM (inactive) | > 100 µM (inactive) | > 100 µM (inactive) | > 100 µM (inactive) | > 100 µM (inactive) | > 100 µM (inactive) | > 100 µM (inactive) | > 100 µM (inactive) | > 100 µM (inactive) |  | > 100 µM (inactive) | > 100 µM (inactive) | > 100 µM (inactive) | > 100 µM (inactive) | > 100 µM (inactive)
